Data from US20110117200A1 (ACTAVIS GROUP PTC EHF, priority 2008, published 2011).
Where a name gives a salt, the structure may show the parent alone.

Key:
[1] = molecular target: B-form of the enzyme monoamine oxidase (MAO-B) (Homo sapiens, UniProt P27338); settings: qualitative statement in the background; cited from earlier work
[2] = sunflower oil dispersant; for Particle size (D50): size below which 50% of the particles by volume are found; for Particle size (D90): size below which 90% of the particles by volume are found
Protocol: Particle Size Distribution (PSD)” is determined by laser diffraction in a Malvern Master Sizer 2000 equipment or its equivalent: Measurement conditions:
As used herein, “Particle Size Distribution (P.S.D)” means the cumulative volume size distribution of equivalent spherical diameters as determined by laser diffraction in Malvern Master Sizer 2000 equipment or its equivalent.
As used herein, Dx means that X percent of the particles have a diameter less than a specified diameter D. Thus, a D90 or d(0.9) of less than 300 microns means that 90 volume-percent of the particles in a composition have a diameter less than 300 microns.
The important characteristics of the PSD were the (D90), which is the size, in microns, below which 90% of the particles by volume are found, and the (D50), which is the size, in microns, below which 50% of the particles by volume are found.

[3] = cited from earlier work

B-form of the enzyme monoamine oxidase (MAO-B), sequence (P27338 whole entry, species assumed): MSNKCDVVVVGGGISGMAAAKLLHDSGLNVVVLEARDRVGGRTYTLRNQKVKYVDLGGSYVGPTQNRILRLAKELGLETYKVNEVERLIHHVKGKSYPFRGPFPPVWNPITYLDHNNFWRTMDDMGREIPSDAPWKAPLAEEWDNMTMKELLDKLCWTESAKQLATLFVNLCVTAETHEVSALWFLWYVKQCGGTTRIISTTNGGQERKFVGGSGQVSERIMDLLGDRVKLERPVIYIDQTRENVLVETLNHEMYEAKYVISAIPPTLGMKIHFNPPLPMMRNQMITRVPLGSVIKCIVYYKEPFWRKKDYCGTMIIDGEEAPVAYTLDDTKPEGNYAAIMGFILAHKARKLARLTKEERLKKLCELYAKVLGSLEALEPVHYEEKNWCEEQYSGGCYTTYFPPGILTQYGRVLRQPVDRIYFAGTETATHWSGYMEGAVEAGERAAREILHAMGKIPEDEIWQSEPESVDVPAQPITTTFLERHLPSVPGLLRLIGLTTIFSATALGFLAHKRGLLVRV

Particle size (D50) [2] [microns] | Particle size (D90) [2] | SMILES | further results
– | – | C#CCN[C@@H]1CCc2ccccc21 [Rasagiline, R(+)—N-propargyl-1-aminoindan] | Inhibition of MAO-B [1]: selective inhibitor
864 | 1496 microns | C#CCN[C@@H]1CCc2ccccc21 [Example 2, rasagiline mesylate] | –
663 | 1407 microns | C#CCN[C@@H]1CCc2ccccc21 [Example 1, rasagiline mesylate] | –
– | – | C#CCN[C@@H]1CCc2ccccc21.CS(=O)(=O)O [Rasagiline mesylate, rasagiline mesylate] | Solubility in ethanol ([3]; ethanol): freely soluble; Solubility in isopropanol ([3]; isopropanol): sparingly soluble; Solubility in water ([3]; water): freely soluble
– | less than 300 microns | C#CCN[C@@H]1CCc2ccccc21 [Example 3, rasagiline mesylate] | –
– | less than 400 microns | C#CCN[C@@H]1CCc2ccccc21 [Example 4, rasagiline mesylate] | –
